Measured values from patent US5137811A, “Method for diagnosing periodontal diseases with a substrate specific for aminopeptidase activity of periodontopathic bacteria” (Sunstar Kabushiki Kaisha, priority 1986, dated 1992).
Blank lines part the entries; values can stand above or below the molecule they belong to. Where a SMILES comes first, the peptide text is derived from it. The star is where a group is joined. pNA = O=[N+]([O-])c1ccc(N*)cc1; βNA = c1ccc2cc(N*)ccc2c1

Legend:
[1] = tested on: periodontopathic bacteria specific aminopeptidase activity; assay: Hydrolytic activity of saliva supernatant (Experiment 7); format: biochemical; conditions: 37° C. for 4 hours, Table 7
Procedure: (§1) Specimens of gingival crevicular fluid were collected with paper points from five subjects who were considered to be healthy from their clinical state, six subjects with gingivitis and six subjects with periodontitis. Each specimen was dispersed in Ringer's solution (1.5 ml), and the relative amount of spirochete to total bacteria: [formula] was determined with a phase contrast microscope. Further, the Ringer's solution (0.3 ml) was tested for hydrolytic activity using the substrate solution prepared in the same manner as described in Experiment 1. As substrates, there were used compounds of the formula [1], i.e., N-benzoylvalyl-glycyl-arginine-β-naphthylamide (BzVGR) and N-carbobenzoxy-valyl-glycyl-arginine-β-naphthylamide (CxVGR) were used.
(§2) A saliva mixture was collected from a group consisting of ten healthy subjects and centrifuged to obtain a supernatant. Likewise, centrifuged supernatants were obtained from a group of ten subjects with adult periodontitis and a group of four localized juvenile periodontitis. The supernatant was used as a specimen and its hydrolytic activity was determined according to the same manner as described in Experiment 4 except that the reaction was carried out at 37° C. for 4 hours. As the substrates, there were used N-carbobenzoxy-valyl-glycyl-arginine-p-nitrophenol (CxVGR-pNP), N-carbobenzoxy-valyl-glycylarginine-4-methoxy-2-naphthylamide (CxVGR-4NA) and N-carbobenzoxy-valyl-glycyl-arginine-β-naphthylamide (CxVGR-βNA). Color was developed by using lN sodium hydroxide for CxVGR-pNP and Fast Blue BB for CxVGR-4NA and CxVGR-βNA.

[2] = tested on: Actinobacillus actinomycetemcomitans; assay: Hydrolytic activity of oral anaerobe cell suspension on aminopeptidase substrates (Experiment 1); format: cell-based; conditions: four strains, substrate 0.2 mM, pH 7.0, 37° C., 60 minutes, Table 1
Procedure: (§3) Oral anaerobes, i.e., four strains of Treponema denticola, five strains of B. gingivalis, four strains of Actinobacillus actinomycetemcomitans, four strains of Capnocytophaga sp. and three strains of Fusobacterium nucleatum were tested for hydrolytic activity to the substrate of aminopeptidase enzyme as follows.
(§4) The strains of Treponema were anaerobically cultivated using TYGVS media at 37° C. for 7 days, while other bacterial strains were cultivated using brain heart infusion broth at 37° C. for 48 to 72 hours. Each culture was diluted to obtain a bacterial cell suspension, the absorption at 660 nm of which was 1.0.
(§5) Substrate compounds for aminopeptidase enzyme having various color developing groups derived from β-naphthylamine were dissolved in 0.1M Tris-HCl buffer (pH 7.0) at the concentration of 0.2 mM to obtain substrate solutions.
(§6) To the substrate solution (1.5 ml) was added the above cell suspension (0.3 ml) and reacted at 37° C. for 60 minutes. After completion of the reaction, a coloring reagent [prepared by dissolving diazonium salt of Garnet GBC in 1M acetate buffer (containing 10% Tween 20, pH: 4.2) at the concentration of 0.5 mg/ml] was added and, after 15 minutes, the absorption at 525 nm was determined with a spectrophotometer.
(§7) On the basis of the average amount of released β-naphthylamine in each strain, the hydrolytic activity was expressed as follows: […]

Bacteroides gingivalis = assay: as above; format: cell-based; conditions: five strains, substrate 0.2 mM, pH 7.0, 37° C., 60 minutes, Table 1
Procedure: as §3, §4, §5, §6, §7

Capnocytophaga sp. = assay: as above; format: cell-based; conditions: four strains, substrate 0.2 mM, pH 7.0, 37° C., 60 minutes, Table 1
Procedure: as §3, §4, §5, §6, §7

Fusobacterium nucleatum [3] = assay: as above; format: cell-based; conditions: three strains, substrate 0.2 mM, pH 7.0, 37° C., 60 minutes, Table 1
Procedure: as §3, §4, §5, §6, §7

Treponema denticola [4] = assay: as above; format: cell-based; conditions: four strains, substrate 0.2 mM, pH 7.0, 37° C., 60 minutes, Table 1
Procedure: as §3, §4, §5, §6, §7

[5] = tested on: Actinobacillus actinomycetemcomitans; assay: Hydrolytic activity of cell suspension, substrates alone or in combination (Experiment 3); format: cell-based; conditions: four strains, Table 3
Procedure: as §4, §5, §6, §7
(§8) According to the same manner as described in Experiment 1, periodontopathic bacteria specific aminopeptidase activity was tested by using four strains of Treponema denticola, five strains of B. gingivalis, four strains of Actinobacillus actinomycetemcomitans, two strains of Actinomyces israelli and three strains of Fusobacterium nucleatum. Abbreviations in Table 3 are the same as those in Tables 1 and 2. Hydrolytic activity "+++" means "40≤release amount<80 nmol/ml" and "++++" means "release amount≥80 nmol/ml".

Actinomyces israelli [6] = assay: as above; format: cell-based; conditions: two strains, Table 3
Procedure: as §4, §5, §6, §7, §8

B. gingivalis [7] = assay: as above; format: cell-based; conditions: five strains, Table 3
Procedure: as §4, §5, §6, §7, §8

Fusobacterium nucleatum [8] = assay: as above; format: cell-based; conditions: three strains, Table 3
Procedure: as §4, §5, §6, §7, §8

Treponema denticola [9] = assay: as above; format: cell-based; conditions: four strains, Table 3
Procedure: as §4, §5, §6, §7, §8

[10] = tested on: Actinobacillus actinomycetemcomitans; assay: Hydrolytic activity of cell suspension on aminopeptidase substrates (Experiment 2); format: cell-based; conditions: four strains, Table 2
Procedure: as §4, §5, §6, §7
(§9) According to the same manner as described in Experiment 1, periodontopathic bacteria specific aminopeptidase activity was tested by using four strains of Treponema denticola, five strains of B. gingivalis, three strains of B. intermedius, two strains of B. melaninogenicus, two strains of Actinomyces israelli, four strains of Actinobacillus actinomycetemcomitans and three strains of Fusobacterium nucleatum. Abbreviations used in Table 2 mean the following substrate compounds.

Actinomyces israelli [11] = assay: as above; format: cell-based; conditions: two strains, Table 2
Procedure: as §4, §5, §6, §7, §9

B. corporis = assay: as above; format: cell-based; conditions: Table 2
Procedure: as §4, §5, §6, §7, §9

B. denticola = assay: as above; format: cell-based; conditions: Table 2
Procedure: as §4, §5, §6, §7, §9

B. gingivalis [12] = assay: as above; format: cell-based; conditions: five strains, Table 2
Procedure: as §4, §5, §6, §7, §9

B. intermedius = assay: as above; format: cell-based; conditions: three strains, Table 2
Procedure: as §4, §5, §6, §7, §9

B. melaninogenicus = assay: as above; format: cell-based; conditions: two strains, Table 2
Procedure: as §4, §5, §6, §7, §9

Fusobacterium nucleatum [13] = assay: as above; format: cell-based; conditions: three strains, Table 2
Procedure: as §4, §5, §6, §7, §9

Treponema denticola [14] = assay: as above; format: cell-based; conditions: four strains, Table 2
Procedure: as §4, §5, §6, §7, §9

[15] = tested on: periodontopathic bacteria specific aminopeptidase activity; assay: Hydrolytic activity of gingival crevicular fluid specimens, visually evaluated (Experiment 5); format: biochemical; design: key: -: orange; +: dark orange; ++: brown; +++: dark brown
Procedure: as §5, §6, §1
In table 4, hydrolytic activity was visually evaluated and expressed as follows: […]
According to the same manner as described in Experiment 4, hydrolytic activity was tested by using the compounds of the formula [2], i.e., lysyl-proline-β-naphthylamide (KP) and N-carbobenzoxy-prolyl-alanyl-glycylproline-β-naphthylamide (CxPAGP) as the substrates.

[16] = tested on: periodontopathic bacteria specific aminopeptidase activity; assay: Hydrolytic activity of saliva supernatant (Experiment 8); format: biochemical; conditions: 37° C. for 4 hours, Table 8
Procedure: as §2
According to the same manner as described in Experiment 7, hydrolytic activity was tested by using lysylproline-p-nitroanilide (KP-pNA), lysyl-proline-4-methoxy-2-naphthylamide (KP-4NA) and lysyl-proline-β-naphthylamide (KP-βNA)as the substrates. Color was developed by using lN sodium hydroxide for KP-pNA and Fast Blue BB for KP-4-NA and KP-βNA.

[17] = tested on: periodontopathic bacteria specific aminopeptidase activity; assay: Hydrolytic activity of saliva supernatant, substrates alone or in combination (Experiment 9); format: biochemical; conditions: 37° C. for 4 hours, Table 9
Procedure: as §2
According to the same manner as described in Experiment 7, hydrolytic activity was tested by using N-carbobenzoxy-valyl-glycyl-arginine-β-naphthylamide (CxVGR-βNA), N-benzoyl-arginyl-glycyl-phenylalanyl-proline-β-naphthylamide (BzRGFP-βNA), N-carbobenzoxy-valyl-glycylarginine-p-nitrophenol (CxVGR-pNP) and N-benzoyl-arginylglycyl-phenylalanyl-proline-p-nitrophenol (BzRGFP-pNP) alone or in combination as the substrates.

[18] = Localized juvenile periodontitis subjects

hydrolytic activity ([1]; Adult Periodontitis subjects): 34.6 ± 8.9 nmol/mL
hydrolytic activity ([1]; Healthy subjects): 18.0 ± 10.8 nmol/mL
hydrolytic activity [1, 18]: 32.3 ± 8.9 nmol/mL
Molecule: COc1cc(NC(=O)[C@H](CCCNC(=N)N)NC(=O)CNC(=O)[C@@H](NC(=O)OCc2ccccc2)C(C)C)cc2ccccc12 [CxVGR-4NA, N-carbobenzoxy-valyl-glycylarginine-4-methoxy-2-naphthylamide]

Molecule: N=C(N)NCCC[C@H](NC(=O)CN)C(=O)Nc1ccc2ccccc2c1 [GR, glycyl-arginine-β-naphthylamide] (H-Gly-Arg-βNA)
hydrolytic activity (average amount of released β-naphthylamine) [2]: - (release amount<5 nmol/ml)
hydrolytic activity (average amount of released β-naphthylamine) (Bacteroides gingivalis): ++ (20 ≤release amount<40 nmol/ml)
hydrolytic activity (average amount of released β-naphthylamine) (Capnocytophaga sp.): ± (5 ≤release amount<10 nmol/ml)
hydrolytic activity (average amount of released β-naphthylamine) (Fusobacterium nucleatum [3]): - (release amount<5 nmol/ml)
hydrolytic activity (average amount of released β-naphthylamine) (Treponema denticola [4]): + (10 ≤release amount<20 nmol/ml)
hydrolytic activity (release amount) [5]: - (release amount<5 nmol/ml)
hydrolytic activity (release amount) (Actinomyces israelli [6]): - (release amount<5 nmol/ml)
hydrolytic activity (release amount) (B. gingivalis [7]): ++ (20 ≤release amount<40 nmol/ml)
hydrolytic activity (release amount) (Fusobacterium nucleatum [8]): - (release amount<5 nmol/ml)
hydrolytic activity (release amount) (Treponema denticola [9]): + (10 ≤release amount<20 nmol/ml)

hydrolytic activity, visually evaluated ([15]; Gingivitis subject 1 (spirochete 7.3 %)): +
hydrolytic activity, visually evaluated ([15]; Gingivitis subject 2 (spirochete 16.7 %)): +
hydrolytic activity, visually evaluated ([15]; Gingivitis subject 3 (spirochete 20.5 %)): ++
hydrolytic activity, visually evaluated ([15]; Gingivitis subject 4 (spirochete 6.8 %)): -
hydrolytic activity, visually evaluated ([15]; Gingivitis subject 5 (spirochete 7.3 %)): -
hydrolytic activity, visually evaluated ([15]; Gingivitis subject 6 (spirochete 14.4 %)): +
hydrolytic activity, visually evaluated ([15]; Healthy subject 1 (spirochete 0.1 %)): -
hydrolytic activity, visually evaluated ([15]; Healthy subject 2 (spirochete 2.5 %)): +
hydrolytic activity, visually evaluated ([15]; Healthy subject 3 (spirochete 1.1 %)): -
hydrolytic activity, visually evaluated ([15]; Healthy subject 4 (spirochete 0.6 %)): -
hydrolytic activity, visually evaluated ([15]; Healthy subject 5 (spirochete 1.3 %)): -
hydrolytic activity, visually evaluated ([15]; Periodontitis subject 1 (spirochete 45.2 %)): +++
hydrolytic activity, visually evaluated ([15]; Periodontitis subject 2 (spirochete 30.3 %)): +++
hydrolytic activity, visually evaluated ([15]; Periodontitis subject 3 (spirochete 34.6 %)): +++
hydrolytic activity, visually evaluated ([15]; Periodontitis subject 4 (spirochete 21.2 %)): +++
hydrolytic activity, visually evaluated ([15]; Periodontitis subject 5 (spirochete 40.3 %)): +++
hydrolytic activity, visually evaluated ([15]; Periodontitis subject 6 (spirochete 35.1 %)): +++
hydrolytic activity ([16]; Adult Periodontitis subjects): 36.2 ± 9.9 nmol/mL
hydrolytic activity ([16]; Healthy subjects): 16.1 ± 10.3 nmol/mL
hydrolytic activity [16, 18]: 33.4 ± 10.0 nmol/mL
Molecule: NCCCC[C@H](N)C(=O)N1CCC[C@H]1C(=O)Nc1ccc2ccccc2c1 [KP, lysyl-proline-β-naphthylamide] (H-Lys-Pro-βNA)
hydrolytic activity (average amount of released β-naphthylamine) [10]: - (release amount<5 nmol/ml)
hydrolytic activity (average amount of released β-naphthylamine) (Actinomyces israelli [11]): - (release amount<5 nmol/ml)
hydrolytic activity (average amount of released β-naphthylamine) (B. corporis): ++ (20 ≤release amount<40 nmol/ml)
hydrolytic activity (average amount of released β-naphthylamine) (B. denticola): ++ (20 ≤release amount<40 nmol/ml)
hydrolytic activity (average amount of released β-naphthylamine) (B. gingivalis [12]): +++ (release amount≥40 nmol/ml)
hydrolytic activity (average amount of released β-naphthylamine) (B. intermedius): ++ (20 ≤release amount<40 nmol/ml)
hydrolytic activity (average amount of released β-naphthylamine) (B. melaninogenicus): ++ (20 ≤release amount<40 nmol/ml)
hydrolytic activity (average amount of released β-naphthylamine) (Fusobacterium nucleatum [13]): - (release amount<5 nmol/ml)
hydrolytic activity (average amount of released β-naphthylamine) (Treponema denticola [14]): ++ (20 ≤release amount<40 nmol/ml)

hydrolytic activity ([16]; Adult Periodontitis subjects): 35.5 ± 10.1 nmol/mL
hydrolytic activity ([16]; Healthy subjects): 16.0 ± 10.8 nmol/mL
hydrolytic activity [16, 18]: 32.3 ± 8.9 nmol/mL
Molecule: COc1cc(NC(=O)[C@@H]2CCCN2C(=O)[C@@H](N)CCCCN)cc2ccccc12 [KP-4NA, lysyl-proline-4-methoxy-2-naphthylamide]

hydrolytic activity ([16]; Adult Periodontitis subjects): 34.3 ± 9.8 nmol/mL
hydrolytic activity ([16]; Healthy subjects): 15.0 ± 9.4 nmol/mL
hydrolytic activity [16, 18]: 31.5 ± 9.7 nmol/mL
Molecule: NCCCC[C@H](N)C(=O)N1CCC[C@H]1C(=O)Nc1ccc([N+](=O)[O-])cc1 [KP-pNA, lysylproline-p-nitroanilide] (H-Lys-Pro-pNA)

Molecule: N-benzoyl-arginylglycyl-phenylalanyl-proline-p-nitrophenol [BzRGFP-pNP]
hydrolytic activity ([17]; Adult Periodontitis subjects): 25.6 ± 8.4 nmol/mL
hydrolytic activity ([17]; Healthy subjects): 13.3 ± 4.9 nmol/mL
hydrolytic activity [17, 18]: 21.8 ± 7.8 nmol/mL

Molecule: N-carbobenzoxy-valyl-glycyl-arginine-p-nitrophenol [CxVGR-pNP]
hydrolytic activity ([1]; Adult Periodontitis subjects): 34.0 ± 9.7 nmol/mL
hydrolytic activity ([1]; Healthy subjects): 17.0 ± 11.4 nmol/mL
hydrolytic activity [1, 18]: 32.5 ± 9.6 nmol/mL
hydrolytic activity ([17]; Adult Periodontitis subjects): 33.5 ± 11.5 nmol/mL
hydrolytic activity ([17]; Healthy subjects): 14.0 ± 7.9 nmol/mL
hydrolytic activity [17, 18]: 28.8 ± 9.1 nmol/mL
